Laboratory results from paper PMC6832239, “The Effects of a Novel Series of KTTKS Analogues on Cytotoxicity and Proteolytic Activity” (Molecules, 2019).
Entries after “also recorded” stand apart in the source; their conditions may differ. Read-outs that look alike come from different tables or passages of the source. Residues, ends and D or L forms follow the SMILES beside them.

Legend:
plasmin = molecular target: T1, plasmin (Homo sapiens, UniProt P00747); experiment: Amidolytic activity of plasmin (chromogenic substrate H-D-Val-Leu-Lys-pNA); assay type: biochemical
T1 construct: purchased Chromogenix (Milano, Italy)
T1 sequence (P00747 581-810 limits assumed): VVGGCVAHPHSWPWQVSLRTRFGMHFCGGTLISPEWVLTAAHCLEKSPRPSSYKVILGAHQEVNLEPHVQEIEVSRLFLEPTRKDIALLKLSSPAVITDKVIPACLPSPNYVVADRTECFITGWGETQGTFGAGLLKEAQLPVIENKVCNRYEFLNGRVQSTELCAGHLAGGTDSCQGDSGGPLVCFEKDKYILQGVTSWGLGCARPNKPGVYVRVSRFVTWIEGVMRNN
T1 sequence (P00747 97-580 partner limits assumed): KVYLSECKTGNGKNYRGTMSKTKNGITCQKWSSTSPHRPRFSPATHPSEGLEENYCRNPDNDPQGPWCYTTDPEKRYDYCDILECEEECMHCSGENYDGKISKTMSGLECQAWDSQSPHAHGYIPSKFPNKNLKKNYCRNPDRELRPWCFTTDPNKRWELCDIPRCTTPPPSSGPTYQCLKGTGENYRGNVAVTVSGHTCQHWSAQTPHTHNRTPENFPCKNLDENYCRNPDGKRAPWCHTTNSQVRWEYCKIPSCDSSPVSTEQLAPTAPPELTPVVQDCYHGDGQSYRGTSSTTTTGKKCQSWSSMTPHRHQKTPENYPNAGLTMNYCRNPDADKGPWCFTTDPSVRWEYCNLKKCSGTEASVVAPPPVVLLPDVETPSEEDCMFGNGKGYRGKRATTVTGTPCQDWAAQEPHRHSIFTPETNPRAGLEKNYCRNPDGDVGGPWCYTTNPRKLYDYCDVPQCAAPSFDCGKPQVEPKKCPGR
Experimental: (§1) The determination of amidolytic activity was performed as previously described by Okada. A detailed description of the method is given below: 0.2 mL of the examined peptides (0.15 M NaCl as contro), a buffer, and 0.1 mL of enzyme solution were mixed. The final peptide concentrations were: 0.2 mM, 2 mM, and 20 mM. The mixture was incubated at 37 °C for 3 min; then the synthetic substrate solution was added in the same buffer. After 20 min of incubation, the reaction was stopped by adding 0.1 mL of 50% acetic acid and the absorbance of the released p-nitroaniline was measured at 405 nm. The mean values from three independent experiments done in duplicate are presented. A method error of 5% was adopted as statistical error. IC50 value was considered as the concentration of inhibitor that reduces absorbance by 50%, compared with absorbance measured under the same conditions without an inhibitor. IC50 was calculated mathematically by extrapolation using a linear plot. IC50 values are presented in Table 1 and Table 2, and graphically in Figure 1.
(§2) The buffers and the enzyme solutions included: • Tris buffer—0.6 mL (pH 8.8), enzyme: urokinase (50 units/mL), synthetic substrate: pyro-Glu-Gly-Arg-pNA·HCl (0.1 mL, 3 mM); • Tris buffer—0.5 mL (pH 8.4), enzyme: thrombin (1 units/mL), synthetic substrate: H-D-Phe-Pip-Arg-pNA (0.2 mL, 0.75 mM); • Tris buffer—0.5 mL (pH 7.4), enzyme: plasmin (0.4 units/mL), synthetic substrate: H-D-Val-Leu-Lys-pNA (0.2 mL, 3 mM); • Borate buffer—0.5 mL (pH 7.5), enzyme: trypsin (0.4 units/mL), synthetic substrate: Bzl-L-Arg-pNA·HCl (0.2 mL, 8 mM); • Tris buffer—0.6 mL (pH 9.0), enzyme: kallikrein (3 units/mL), synthetic substrate: H-D-Val-Leu-Arg-pNA·2HCl (0.1 mL, 75 mM); • Tris buffer—0.6 mL (pH 8.4), enzyme: t-PA ([…]), synthetic substrate: H-D-Ile-Pro-Arg-pNA (0.1 mL, 10 mM) • Tris buffer—0.6 mL (pH 9.0), enzyme: chymotrypsin (0.4 units/mL), synthetic substrate: Suc-Phe-pNA (0.2 mL, 8 mM)

urokinase = molecular target: T2, urokinase (Homo sapiens, UniProt P00749); experiment: Amidolytic activity of urokinase (chromogenic substrate pyro-Glu-Gly-Arg-pNA); assay type: biochemical
T2 construct: purchased Sigma (Schnelldorf, Germany)
Experimental: as §1, §2

thrombin = molecular target: T3, thrombin (Bos taurus, UniProt P00735); experiment: Amidolytic activity of thrombin (chromogenic substrate H-D-Phe-Pip-Arg-pNA); assay type: biochemical; conditions: for IC50: amidolytic activity, Tris pH 8.4, 37 °C, IC50 by extrapolation using a linear plot, error 5%, read-out: IC50 Thrombin
T3 construct: purchased Lubelska Wytwórnia Szczepionek (Lublin, Poland)
Experimental: The determination of amidolytic activity was performed as previously described by Okada. A detailed description of the method is given below: 0.2 mL of the examined peptides (0.15 M NaCl as contro), a buffer, and 0.1 mL of enzyme solution were mixed. The final peptide concentrations were: 0.2 mM, 2 mM, and 20 mM. The mixture was incubated at 37 °C for 3 min; then the synthetic substrate solution was added in the same buffer. […] The mean values from three independent experiments done in duplicate are presented. A method error of 5% was adopted as statistical error. […] IC50 was calculated mathematically by extrapolation using a linear plot.

[1] = Viability of fibroblast cells, MTT assay; assay type: cell-based, Human; conditions: human, primary dermal fibroblast cells, 24 h, MTT, ± 2, read-out: Viability of fibroblast cells
Experimental: (§3) Viability of fibroblast cells was examined with the use of the MTT assay. MTT, a yellow tetrazole, is reduced to purple formazan only in living cells. Absorbance of the coloured solution was measured by a spectrophotometer.
(§4) These studies were performed on primary dermal fibroblasts cells. The cells were maintained in DMEM supplemented with 10% fetal bovine serum (FBS), 2 mM glutamin, 50 U/mL penicillin and […] streptomycin at 37 °C in a 5% CO2 incubator. For experiments, cells cultures were plated at a density of 1 × 10^6/well in six-well culture plates (Costar, St. Louis, MO, USA) in 2 mL of growth medium. Cells reached about 80% of confluency at day 2 were used for the assays.
(§5) Toxicity of the tested substances was determined using an MTT [3-(4,5-dimethylthiazol-2-yl)-2,5-diphenyltetrazolium bromide)] assay. Palmitoyl and lipoyl peptides were dissolved in DMSO (dimethyl sulfoxide), the other peptides in DMEM, and added to the cell culture medium. Simultaneously, the same concentrations of DMSO without peptides were added to cells, serving as controls. The final peptide concentrations were: 1 μM, 10 μM, and 100 μM. After 24 h incubation, the cells cultured with the tested compounds were washed with phosphate-buffered saline (PBS) and then incubated for 4 h in 2 mL of MTT solution (5 mg/mL). After removing the medium, the cells were lysed in 200 μL of DMSO with 20 μL of Sorensen’s buffer (pH 10.5, 0.1 mol/L glycine with 0.1 mol/L NaCl). The absorbance of converted dye in living cells was measured at a wavelength of 570 nm. The mean values ± SD from three independent experiments done in duplicate are presented.

[2] = test system: primary dermal fibroblasts cells; experiment: Viability of fibroblast cells, MTT assay; assay type: cell-based, Human; conditions: MTT, 1-100 μM, 24 h
Experimental: as §3, §4, §5

fibroblast cells = experiment: DNA biosynthesis, [3H] thymidine incorporation in fibroblasts; assay type: cell-based, Human; conditions: for DNA biosynthesis: 24 h, ± 2
Experimental: In the radioactive method of DNA measurement in the liquid sample, the radioactive activity of the sample was measured. This technique involves mixing a radioactive material with a scintillation fluid/liquid (which contains a scintillator), resulting in photon emission. This emission is counted by a suitable detector.
To examine the effect of the studied compounds on DNA biosynthesis of fibroblast cells, they were plated in 24-well tissue culture dishes at 1 × 10^5 cells per well with 1 mL of growth medium. The plates were incubated after 48 h with the examined peptides and 0.5 μCi of [^3H] thymidine (6.7 Ci/mmol) at 37 °C. The final peptide concentrations were: 10 μM, 50 μM, and 100 μM. After 24 h incubation, the cells were rinsed with PBS three times and twice with 5% trichloroacetic acid. To measure the radioactivity incorporated into DNA, the cells were solubilized with 1 mL of 0.1 M sodium hydroxide containing 1% SDS and an addition of scintillation liquid (9 mL) (https://www.perkinelmer.com/pl/category/scintillation-cocktails). Radioactivity was determined in a scintillation counter, i.e., Liquid Scintillation Analyzer Tri-Carb 2810 TR (Perkin Elmer, Waltham, MA USA)) with Quanto Smart TM software (Perkin Elmer).

Fibroblasts = experiment: Collagen biosynthesis, 5[3H]-proline incorporation in fibroblasts; assay type: cell-based, Human; conditions: 24 h, ± 2
Experimental: In collagen biosynthesis assays cells were counted in a haemocytometer and incorporation of a radioactive precursor 5[^3H]-proline into collagen was measured. Total protein synthesis was calculated from the sum of radioactivity of collagenase-resistant proteins and collagen digest.
Fibroblasts were cultured in six-well plates until confluence. Then they were incubated for 24 h in growth medium in the absence or presence of the tested peptides and 5[^3H]-proline (5 µCi/mL, 28 Ci/mM). The final peptide concentrations were: 10 μM, 50 μM and 100 μM. In accordance with the method proposed by Peterkofsky and Diegelmann, incorporation of the radioactive precursor into collagen was determined by digesting the proteins with purified Clostridium histolyticum collagenase. Finally, the monolayers were washed with sterile 10mM PBS, pH 7.4 four times, and cell membranes were disrupted using a sonicator. Aliquots of the cell homogenate were removed for protein measurement using the BCA™ Protein Assay Kit (Pierce, Waltham, MA USA). The results are shown as combined values for cell plus medium fractions.

[3] = amidolytic activity, Tris pH 7.4, 37 °C, IC50 by extrapolation using a linear plot, error 5%, read-out: IC50 Plasmin
[4] = amidolytic activity, Tris pH 8.8, 37 °C, IC50 by extrapolation using a linear plot, error 5%, read-out: IC50 Urokinase
[5] = converted from IC50 of Table 1, read-out: -logIC50 Plasmin (converted)

Compound | level of inhibition of plasmin activity (plasmin) | level of inhibition of urokinase activity (urokinase) | level of inhibition of thrombin activity (thrombin) | IC50 (thrombin) | viability at 24 h, 1 µmol/L [1] | viability at 24 h, 10 µmol/L [1] | viability at 24 h, 100 µmol/L [1] | IC50 (plasmin; [3]) | IC50 (urokinase; [4]) | cytotoxicity / cell growth effect on fibroblasts [2] | DNA biosynthesis (fibroblast cells; 10 µmol/L) | DNA biosynthesis (fibroblast cells; 50 µmol/L) | DNA biosynthesis (fibroblast cells; 100 µmol/L) | DNA synthesis (fibroblast cells; 10, 50, 100 μM) | Collagen biosynthesis (Fibroblasts; 10 µmol/L) | Collagen biosynthesis (Fibroblasts; 50 µmol/L) | Collagen biosynthesis (Fibroblasts; 100 µmol/L) | IC50 (urokinase; converted from IC50 of Table 1, read-out: -logIC50 Urokinase (converted)) | IC50 (plasmin; [5])
CCCCCCCCCCCCCCCC(=O)N[C@@H](CCCNC(=N)N)C(=O)N[C@H](C(=O)N[C@H](C(=O)N[C@@H](CCCNC(=N)N)C(=O)N[C@@H](CO)C(=O)O)[C@@H](C)O)[C@@H](C)O [Peptide 20, Pal-Arg-Thr-Thr-Arg-Ser-OH] (HELM PEPTIDE1{[CCCCCCCCCCCCCCCC(=O)[*:2]].R.T.T.R.S}$$$$V2.0) | above 90% | above 90% | above 90% | < 0.2 mM | 90% | 90% | 103% | – | – | – | – | – | – | – | – | – | – | – | –
CCCCCCCCCCCCCCCC(=O)N[C@@H](CCCNC(=N)N)C(=O)N[C@H](C(=O)N[C@H](C(=O)N[C@@H](CCCCN)C(=O)N[C@@H](CO)C(=O)O)[C@@H](C)O)[C@@H](C)O [Peptide 28, Pal-Arg-Thr-Thr-Lys-Ser-OH] (HELM PEPTIDE1{[CCCCCCCCCCCCCCCC(=O)[*:2]].R.T.T.K.S}$$$$V2.0) | above 90% | above 90% | above 90% | – | 104% | 103% | 106% | – | – | – | – | – | – | – | – | – | – | – | –
Ac-KTTKS-NH2 [Peptide 6, Ac-Lys-Thr-Thr-Lys-Ser-NH2] | – | – | – | 3.25 ± 0.16 mM | 97% | 88% | 86% | 2.92 ± 0.15 mM | > 20 mM | – | – | – | – | – | – | – | – | – | –
Ac-KTTKS-OH [Peptide 2, Ac-Lys-Thr-Thr-Lys-Ser-OH] | – | – | – | 2.2 ± 0.11 mM | 98% | 88% | 82% | 2.78 ± 0.14 mM | 3.88 ± 0.19 mM | – | – | – | – | – | – | – | – | – | –
Ac-KTTRS-NH2 [Peptide 14, Ac-Lys-Thr-Thr-Arg-Ser-NH2] | – | – | – | 2.95 ± 0.15 mM | 112% | 135% | 150% | 5.34 ± 0.27 mM | 5.56 ± 0.28 mM | exhibited cell growth effects; also recorded: showed proliferative effect; also recorded: exhibited the effect of cell growth | 114 % of Control | 96 % of Control | 127 % of Control | an increase in DNA synthesis was observed | 105 % of Control | 171 % of Control | 157 % of Control | – | –
Ac-KTTRS-OH [Peptide 10, Ac-Lys-Thr-Thr-Arg-Ser-OH] | – | – | – | 2.89 ± 0.14 mM | 104% | 100% | 94% | 2.24 ± 0.11 mM | – | – | – | – | – | – | – | – | – | 4.79 mM | –
Ac-RTTKS-NH2 [Peptide 30, Ac-Arg-Thr-Thr-Lys-Ser- NH2] | – | – | – | 1.59 ± 0.08 mM | 95% | 105% | 101% | 5 ± 0.25 mM | 12.1 ± 0.6 mM | – | – | – | – | – | – | – | – | – | –
Ac-RTTRS-NH2 [Peptide 22, Ac-Arg-Thr-Thr-Arg-Ser-NH2] | – | – | – | 1.47 ± 0.074 mM | 102% | 99% | 101% | 9.08 ± 0.45 mM | > 20 mM | – | – | – | – | – | – | – | – | – | –
Ac-RTTRS-OH [Peptide 18, Ac-Arg-Thr-Thr-Arg-Ser-OH] | – | – | – | 3.12 ± 0.16 mM | 88% | 103% | 107% | 8.81 ± 0.44 mM | 3.24 ± 0.16 mM | – | – | – | – | – | – | – | – | – | 8.91 mM
H-KTTKS-NH2 [Peptide 5, H-Lys-Thr-Thr-Lys-Ser-NH2] | – | – | – | 7.04 ± 0.35 mM | 91% | 91% | 100% | 0.53 ± 0.026 mM | 9.15 ± 0.46 mM | – | – | – | – | – | – | – | – | – | –
H-RTTKS-NH2 [Peptide 29, H-Arg-Thr-Thr-Lys-Ser-NH2] | – | – | – | 2.43 ± 0.12 mM | 101% | 111% | 110% | 0.3 ± 0.015 mM | 7.95 ± 0.4 mM | – | – | – | – | – | – | – | – | – | 0.309 mM
H-RTTKS-OH [Peptide 25, H-Arg-Thr-Thr-Lys-Ser-OH] | – | – | – | 2.51 ± 0.13 mM | 97% | 87% | 109% | 0.54 ± 0.027 mM | < 0.2 mM | – | – | – | – | – | – | – | – | – | –
H-RTTRS-NH2 [Peptide 21, H-Arg-Thr-Thr-Arg-Ser-NH2] | – | – | – | 2.93 ± 0.14 mM | 84% | 94% | 103% | 0.44 ± 0.022 mM | 12 ± 0.59 mM | – | – | – | – | – | – | – | – | – | –
